The values below are quoted from earlier work in patent US12128086B2, “Formulations and methods of use for alpha connexin c-terminal (ACT) peptides” (XEQUEL BIO, INC., priority 2012, dated 2024).

Series [1] deals with full thickness excisional wounds. The settings on record: adult mice; 100 μM of ACT1 peptide; 5 mm full thickness excisional wounds.
Series [2] has the same test system. The settings on record: pigs; 100 μM of ACT1 peptide; 5 mm full thickness excisional wounds.

Where two headings read alike, the source gives them in different places.

As for “Biotin-Ahx-Arg-Gln-Pro-Lys-lle-Trp-Phe-Pro-Asn-Arg-Arg-Lys-Pro-Trp-Lys-Lys-Arg-Pro-Arg-Pro-Asp-Asp-Leu-Glu-lle-OH [Peptide 328967]”, the “Wound healing versus vehicle control (in words)” value is “closed faster, appeared less swollen and inflamed, and healed with a smoother and less discolored appearance” in series [1]; “closed faster, appeared less swollen and inflamed, and healed with a smoother and less discolored appearance” in series [2].
